Test results from patent US12351565B2, “Aromatic compound and preparation method therefor and use thereof” (SHANGHAI JIANHE PHARMACEUTICAL & TECHNOLOGY CO. LTD., priority 2018, dated 2025).

How the values were obtained:
[1] = In vivo pharmacokinetic experiment in mice; settings: C57 mice
Procedure: Healthy male C57 mice were randomly divided into groups with 3 mice in each group, and the test compounds were administrated intragastrically or by intravenous injection. See Table 6 below for specific arrangements:
(§1) Each test compound was dissolved in physiological saline to prepare a certain concentration of solution for administration.
(§2) One day before administration, the mice were fasted and allowed to drink freely for 12-14 h. The mice were fed 4 h after administration.
0.030 mL of blood was took from each animal each time through the orbit, and anticoagulated with EDTAK2. The collection time points were as follows: in PO group, 5 min, 15 min, 30 min, 1 h, 2 h, 4 h, 6 h, 8 h, 24 h after administration of test substance; in IV group, 2 min, 5 min, 15 min, 30 min, 1 h, 2 h, 4 h, 6 h, 8 h, 24 h after administration of test substance. After blood samples were collected, they were placed on ice and centrifuged to separate the plasma within 30 minutes (centrifugation conditions: 5000 rpm, 10 minutes, 4° C.). The sample were stored at −80° C. before analysis.

[2] = Distribution in mouse brain tissue; type: in vivo, C57 mice
Procedure: Healthy male C57 mice were randomly divided into groups with 3 mice in each group, and the test compound was administrated intragastrically. See Table 10 below for specific arrangements:
as §1, §2
After the animals were bled, the brain tissue was collected. After washing, 50% ice methanol was added for homogenate at 1:4 (m/v). The collection time points was 10 min, 15 min, 30 min, 1 h, 2 h after administration of the test substance; 30.0 μL of tissue sample was taken (the sample was taken out from the refrigerator at −80° C., vortexed for 30 seconds after natural melting at room temperature) and added into a 1.5 mL centrifuge tube. 300.0 μL internal standard solution (30 ng/mL […] acetonitrile solution) was added, the mixture was vortex for 60 seconds and then centrifuged for 3 minutes (centrifugal force was 12000 rpm); 75 μL of the supernatant was taken and transferred to 96-well injection plate loaded with equal volume of water, shaken and mixed well, and subjected to LC-MS/MS analysis, wherein injection volume was 10 μL.

[3] = male, mouse, iv, 5 mg/kg i.v., plasma
[4] = male, mouse, po, 20 mg/kg p.o., plasma

Cl.N[C@]1(c2ccc(C(F)(F)F)cc2)CCC[C@H](O)C1=O [Compound 51, (2S,6S)-2-amino-6-hydroxy-2-(4-(trifluoromethyl)phenyl)cyclohexane-1-one hydrochloride]
AUC0-t ([1]; 5 mg/kg i.v., plasma): 6471 ngh/mL | AUC0-∞ ([1]; 5 mg/kg i.v., plasma): 6567 ngh/mL | F ([1]; 20 mg/kg p.o. vs 5 mg/kg i.v.): 68.0% | AUC0-t ([1]; 20 mg/kg p.o., plasma): 17539 ngh/mL | AUC0-∞ ([1]; 20 mg/kg p.o., plasma): 17877 ngh/mL | MRT [1, 3]: 1.23 h | half-life [1, 3]: 1.79 h | clearance ([1]; male, mouse, plasma, iv, 5 mg/kg i.v.): 13.5 mL/min/kg | Vd ([1]; male, mouse, plasma, iv, 5 mg/kg i.v., read-out: Vss): 0.98 L/kg | Cmax [1, 4]: 7520 ng/mL | MRT [1, 4]: 3.59 h | Tmax [1, 4]: 5 min | half-life [1, 4]: 4.09 h | AUC0-∞ ([2]; C57 mouse brain tissue, 20 mg/kg p.o.): 46324 ng·h/g | concentration at 15 min ([2]; male, brain, po, C57 mouse, 10 mg/kg p.o., 15 min): 5090 ng/g | concentration at 10 min ([2]; male, brain, po, C57 mouse, 20 mg/kg p.o. (intragastrically), 10 min): 23500 ng/g | half-life ([2]; male, po, C57 mouse brain tissue, 20 mg/kg p.o.): 1.36 h
